The target in assay [1] is T1, CK2-alpha1 (catalytic subunit of CK2) (Homo sapiens, UniProt P68400).
T1 construct: made in house; host or cells: Sf9 insect cells, baculovirus
The assay is described as follows: Radiometric protein kinase assay (33PanQinase Activity Assay). To be noted: 1 μM ATP, substrate casein. The class given is biochemical.

For the next assay, the system named is A427. As to the kind of experiment: Proliferation of tumor cell lines (Bracht et al.). Format: cell-based. To be noted: Homo sapiens, A-427, read-out: IC50 (μM) Mean, inhibition of cell proliferation.
In assay [2] the target is T2, human CK2 protein kinase (holoenzyme) (Homo sapiens, UniProt P68400).
T2 construct: made in house; host or cells: E. coli BL21(DE3), pT7-7 or bicistronic pET11d-CK2α, β
The assay is described as follows: Inhibition of recombinant human CK2 protein kinase (holoenzyme), radiometric filter assay with peptide […]. The class given is biochemical.

The next assay deals with MCF-7. As to the kind of experiment: Proliferation of tumor cell lines (Bracht et al.). Format: cell-based. The settings on record: Homo sapiens, MCF7, read-out: IC50 (μM) Mean, inhibition of cell proliferation.

T2 sequence (P68400 whole entry): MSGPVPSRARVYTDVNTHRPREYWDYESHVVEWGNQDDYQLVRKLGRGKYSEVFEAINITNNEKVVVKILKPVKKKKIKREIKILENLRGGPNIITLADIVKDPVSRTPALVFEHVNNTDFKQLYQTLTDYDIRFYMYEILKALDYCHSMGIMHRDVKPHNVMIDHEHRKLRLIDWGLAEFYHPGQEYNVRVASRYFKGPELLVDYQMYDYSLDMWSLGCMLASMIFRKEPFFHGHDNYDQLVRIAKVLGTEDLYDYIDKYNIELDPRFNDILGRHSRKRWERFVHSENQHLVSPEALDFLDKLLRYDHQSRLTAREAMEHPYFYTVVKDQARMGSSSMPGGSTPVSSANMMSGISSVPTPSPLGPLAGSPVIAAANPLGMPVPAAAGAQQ
T2 sequence (P67870 whole entry partner): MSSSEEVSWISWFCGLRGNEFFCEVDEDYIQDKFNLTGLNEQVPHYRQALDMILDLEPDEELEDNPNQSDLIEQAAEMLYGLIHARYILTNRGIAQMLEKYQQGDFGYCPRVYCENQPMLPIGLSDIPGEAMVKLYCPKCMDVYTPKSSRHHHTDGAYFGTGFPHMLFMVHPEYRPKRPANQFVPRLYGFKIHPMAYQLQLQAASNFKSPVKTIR
T1 sequence (P68400 whole entry): as the sequence (P68400 whole entry) above

As usually defined, the inhibition is the change of the read-out against control, counted positive when it falls. `O=c1ccc(=O)c2c1c1c(=O)c3ccccc3c1n2Cc1ccccc1` [Compound 6c, 5-Benzyl 5,6,9,10-tetrahydroindeno[1,2-b]indole-6,9,10-trione]: the IC50 was over 10 µM in assay [1]; 3.74 µM in the assay on A427; 1.49 µM in assay [2] (concentration range 30 μM to 0.01 μM, 100 μM ATP in assay buffer); 3.27 µM with MCF-7. Further, the inhibition at 10 µM in assay [2] (10 μM compound, DMSO control = 100% CK2 activity, at least three independent experiments) stood at 60%.

Source of the values: patent publication US8133913B2, “Substituted indeno [1,2-b]indole derivatives as novel inhibitors of protein kinase CK2 and their use as tumor therapeutic agents, cytostatics and diagnostic aids” (Heinrich-Heine Universitat Dusseldof, priority 2006, dated 2012).
